# From ChEMBL document CHEMBL3603746, “Discovery of New H2S Releasing Phosphordithioates and 2,3-Dihydro-2-phenyl-2-sulfanylenebenzo[d][1,3,2]oxazaphospholes with Improved Antiproliferative Activity” (J Med Chem, 2015)
# How the values were obtained:
# [1] = Induction of H2S release in 10% PBS:MeCN solution at 5 mM incubated at 22 degC in dark condition measured at 96 hrs by 2, 6-dansyl azide probed-based fluorescence assay relative to control; settings: buffer, 5000 µM
# [2] = Induction of H2S release in 10% PBS:MeCN solution at 5 mM incubated at 37 degC in dark condition measured at 96 hrs by 0.2 mM 2, 6-dansyl azide probed-based fluorescence assay relative to control; type: physicochemical; settings: buffer, 5000 µM
# [3] = Induction of H2S release in 10% PBS:MeCN solution assessed as ratio of H2S level at 37 degC to H2S level at 22 degC at 5 mM incubated in dark condition measured at 96 hrs by 2, 6-dansyl azide probed-based fluorescence assay; settings: buffer, 5000 µM
# [4] = Induction of H2S release in 10% PBS:MeCN solution at 5 mM incubated at 22 degC in dark condition measured at 96 hrs by 2, 6-dansyl azide probed-based fluorescence assay relative to GYY4137; type: physicochemical; settings: buffer, 5000 µM
# [5] = Induction of H2S release in 10% PBS:MeCN solution at 5 mM incubated at 37 degC in dark condition measured at 96 hrs by 2, 6-dansyl azide probed-based fluorescence assay relative to GYY4137; type: physicochemical; settings: buffer, 5000 µM
# MCF7 [6] = experiment: Cytotoxicity against human MCF7 cells assessed as inhibition of cell proliferation after 4 days by crystal violet assay; type: functional, cell-based; settings: MCF7, 96 h
# MCF7 [7] = experiment: cells; type: functional, cell-based; settings: Homo sapiens, MCF7, 72 h
# Description: Cytotoxicity against human MCF7 cells assessed as inhibition of cell proliferation after 72 hrs by MTT assay
# SK-OV-3 = experiment: Cytotoxicity against human SKOV3 cells assessed as inhibition of cell proliferation after 4 days by crystal violet assay; type: functional, cell-based; settings: SK-OV-3, 96 h
# MDA-MB-231 = experiment: cells; type: functional, cell-based; settings: Homo sapiens, MDA-MB-231, 72 h
# Description: Cytotoxicity against human MDA-MB-231 cells assessed as inhibition of cell proliferation after 72 hrs by MTS assay
# [8] = Effective permeability of the compound at 500 uM after 6 hrs by PAMPA
# [9] = Effective permeability of the compound at 500 uM after 16 hrs by PAMPA
# physchem = settings: DMSO, pH 7.4
# Description: Kinetic solubility of the compound in DMSO at pH 7.4 measured at 24 hrs by multiscreen filter paper-based UV absorbance analysis
# [10] = Toxicity in human WI38 cells assessed as inhibition of cell proliferation after 4 days by crystal violet assay
# [11] = Therapeutic index, ratio of IC50 for human WI38 cells to IC50 for human MCF7 cells; settings: WI38 cells and MCF7 cells
# [12] = Therapeutic index, ratio of IC50 for human WI38 cells to IC50 for human SKOV3 cells; settings: WI38 cells and SKOV3 cells
# [13] = Induction of H2S release in 10% PBS:MeCN solution at 1 mM incubated at 22 degC in dark condition measured at 72 hrs by 2, 6-dansyl azide probed-based fluorescence assay; type: physicochemical; settings: buffer, 1000 µM
# [14] = Induction of H2S release in 10% PBS:MeCN solution at 100 uM incubated at 37 degC in dark condition measured at 72 hrs by 2, 6-dansyl azide probed-based fluorescence assay; type: physicochemical; settings: buffer
# PC-3 = experiment: cells; type: functional, cell-based; settings: Homo sapiens, PC-3, 72 h
# Description: Cytotoxicity against human PC3 cells assessed as inhibition of cell proliferation after 72 hrs by MTT assay
# Hepatocyte = experiment: Toxicity in transforming growth factor alpha transgenic mouse hepatocytes at 100 uM after 24 hrs by CellTiter-Glo cell viability assay; type: cell-based
# [15] = Induction of H2S release in 10% PBS:MeCN solution at 0.5 mM incubated at 22 degC in dark condition measured at 48 hrs by 2, 6-dansyl azide probed-based fluorescence assay relative to control; type: physicochemical; settings: buffer, 500 µM
# [16] = Induction of H2S release in 10% PBS:MeCN solution at 0.5 mM incubated at 37 degC in dark condition measured at 48 hrs by 1 mM 2, 6-dansyl azide probed-based fluorescence assay relative to control; type: physicochemical; settings: buffer, 500 µM
# [17] = Induction of H2S release in 10% PBS:MeCN solution assessed as ratio of H2S level at 37 degC to H2S level at 22 degC at 0.5 mM incubated in dark condition measured at 96 hrs by 2, 6-dansyl azide probed-based fluorescence assay; type: physicochemical; settings: buffer, 500 µM
# [18] = Induction of H2S release in 10% PBS:MeCN solution at 0.5 mM incubated at 22 degC in dark condition measured at 48 hrs by 2, 6-dansyl azide probed-based fluorescence assay relative to 12 uM of GYY4137; type: physicochemical; settings: buffer, 500 µM
# [19] = Induction of H2S release in 10% PBS:MeCN solution at 0.5 mM incubated at 37 degC in dark condition measured at 48 hrs by 2, 6-dansyl azide probed-based fluorescence assay relative to 6.9 uM of GYY4137; type: physicochemical; settings: buffer, 500 µM
# [20] = Therapeutic index, ratio of IC50 for human WI38 cells to IC50 for human MBA-MD-231 cells; settings: WI38 cells and MBA-MD-231 cells
# [21] = Therapeutic index, ratio of IC50 for human WI38 cells to IC50 for human PC3 cells; settings: WI38 cells and PC3 cells
SMILES,%max [1],%max [2],Ratio [3],fold change (FC) [4],fold change (FC) [5],IC50 (MCF7 [6]),IC50 (MCF7 [7]),IC50 (SK-OV-3),IC50 (MDA-MB-231),IC50 at 4 days [10],selectivity ratio [11],selectivity ratio [12],Activity [13],Activity [14],selectivity ratio [20],further results
COc1ccc(P(=S)(S)OCCCN)cc1 (stereo not drawn),0.02%,0.06%,2.7,< 0.1,< 0.1,> 400 µM,> 500 µM,> 400 µM,> 500 µM,–,–,–,–,–,–,"Papp at 6 h, 500 µM ([8]; PAMPA): 0.007 ×10⁻⁶ cm/s; Papp at 16 h, 500 µM [9]: 0.0027 ×10⁻⁶ cm/s; solubility kinetic at 24 h (physchem): > 280 µg/mL"
COc1ccc(P2(=S)Nc3cc(OC)ccc3O2)cc1 (stereo not drawn),–,–,–,–,–,39.4 µM,–,30.2 µM,–,115 µM,2.9,2.9,–,–,–,Activity ([13]; BLD = below limit of detection): BLD; Activity ([14]; BLD = below limit of detection): BLD
C1COCCN1.COc1ccc(P(=S)(S)OC)cc1 (stereo not drawn),0.06%,0.15%,2.5,< 0.1,< 0.1,450 µM,446 µM,430 µM,216 µM,–,–,–,–,–,–,"IC50 (PC-3): > 200 µM; Activity (Hepatocyte): Non-toxic; Peff ([8]; pampa, 6 h, 500 µM): 0.003 ×10⁻⁷ cm/s; Papp at 16 h, 500 µM [9]: 0.0031 ×10⁻⁶ cm/s"
Cc1ccc2c(c1)OP(=S)(c1ccc(Oc3ccccc3)cc1)N2 (stereo not drawn),–,–,–,–,–,186 µM,–,196 µM,–,> 400 µM,–,2,39.2 µM,59.9 µM,–,–
CN1c2ccccc2OP1(=S)c1ccccc1 (stereo not drawn),–,–,–,–,–,72.7 µM,–,69.4 µM,–,207 µM,2.8,2.8,24.4 µM,20.7 µM,–,–
COc1ccc(P2(=S)Oc3ccccc3N2C)cc1 (stereo not drawn),–,–,–,–,–,42.6 µM,–,44.2 µM,–,92.5 µM,2.1,2.1,2.1 µM,10.1 µM,–,–
Fc1ccc2c(c1)NP(=S)(c1ccc(Oc3ccccc3)cc1)O2 (stereo not drawn),–,–,–,–,–,13.6 µM,–,38.1 µM,–,65.6 µM,1.7,1.7,5 µM,Not Active,–,–
COc1ccc(P2(=S)Nc3ccccc3O2)cc1 (stereo not drawn),–,–,–,–,–,37.1 µM,–,38.1 µM,–,94.4 µM,2.5,2.5,48.3 µM,42.7 µM,–,–
NCc1ccccc1.S=P(S)(NCc1ccccc1)NCc1ccccc1,–,–,–,–,–,145 µM,218 µM,189 µM,104 µM,266 µM,1.4,1.4,–,–,1.4,%max [15]: 2.4%; %max [16]: 1.9%; Ratio [17]: 0.8; fold change (FC) [18]: 2; fold change (FC) [19]: 2.8; selectivity ratio [21]: 1.4
COc1ccc(P2(=S)Nc3cc(F)ccc3O2)cc1 (stereo not drawn),–,–,–,–,–,33.6 µM,–,70.8 µM,–,> 200 µM,–,2.8,53.8 µM,33.3 µM,–,–
C1COCCN1.CCCCOP(=S)(S)c1ccc(OC)cc1 (stereo not drawn),0.04%,0.12%,3.2,< 0.1,< 0.1,92 µM,193 µM,–,77.6 µM,177 µM,1.1,1.1,–,–,1.1,IC50 (PC-3): 79.1 µM; selectivity ratio [21]: 1.1
NCC1CCCCC1.S=P(S)(NCC1CCCCC1)NCC1CCCCC1,–,–,–,–,–,172 µM,> 500 µM,179 µM,> 500 µM,287 µM,1,1,–,–,1,%max [15]: 0.82%; %max [16]: 21.8%; Ratio [17]: 2.7; fold change (FC) [18]: 6.8; fold change (FC) [19]: 31.6; selectivity ratio [21]: 1
C1COCCN1.COc1ccc(P(=S)(S)OC(C)C)cc1 (stereo not drawn),0.04%,0.12%,3,< 0.1,< 0.1,266 µM,205 µM,200 µM,84.6 µM,> 400 µM,1.5,1.5,–,–,1.5,–
COc1ccc(P2(=S)Nc3ccc(C)cc3O2)cc1 (stereo not drawn),–,–,–,–,–,93.2 µM,–,211 µM,–,> 400 µM,–,1.9,59 µM,48.2 µM,–,–
C1COCCN1.COP(=S)(S)c1ccc(Oc2ccccc2)cc1 (stereo not drawn),0.06%,0.16%,2.7,< 0.1,< 0.1,181 µM,202 µM,165 µM,87 µM,347 µM,1.9,1.9,–,–,1.9,IC50 (PC-3): 73.1 µM; selectivity ratio [21]: 1.9
